Values of other authors as cited in US20200368234A1, “PHOTORECEPTOR GENE MODULATOR PHOTOREGULIN 3 FOR TREATMENT OF RETINAL DISEASE” (University of Washington, priority 2017, published 2020).

Columns and labels:
Pde6b^Rd1 = Pde6b^Rd1 model of RP; previously reported; cited from earlier work
Rho^P23H = Rho^P23H model of RP; previously reported; cited from earlier work
rod gene expression = conditions: developing or mature retina treated with PR1; previously reported; cited from earlier work

Compound: Cc1cc(C)cc(NC(=O)CCc2nc3sc4c(c3c(=O)[nH]2)CCCC4)c1 [PR1]
- rod degeneration in vitro (Pde6b^Rd1): slows rod degeneration in vitro
- rod degeneration in vitro (Rho^P23H): slows rod degeneration in vitro
- rod and cone gene expression (rod gene expression): reduces rod gene expression and increases the expression of some cone genes
